The values below come from ChEMBL document CHEMBL5543059, “Discovery of anti-inflammatory natural flavonoids: Diverse scaffolds and promising leads for drug discovery” (Eur J Med Chem, 2023).

Where only a bound is given, the exact number is not on record here.

The subject of assay [1] is Neutrophil. The assay is described as follows: Inhibition of fMLF/CB-induced human Neutrophil activation assessed as reduction in superoxide anion generation pre-incubated for 2 mins prior to CB induction for 3 mins followed by fMLF addition by spectrophotometric analysis. The class given is functional, cell-based.
In assay [2] the test system is BV-2. Nature of the assay: Antiinflammatory activity in mouse BV-2 cells assessed as reduction in LPS-induced NO production pre-treated with compound for 1 hr followed by LPS-stimulation and measured for 23 hrs by Griess reagent based analysis. The class given is functional, cell-based.
Assay [3] concerns Neutrophil. The assay is described as follows: Inhibition of fMLF/CB-induced human Neutrophil activation assessed as reduction in elastase release. The assay is classed as functional, cell-based.
The subject of assay [4] is Neutrophil. Nature of the assay: Inhibition of fMLF/CB-induced human Neutrophil activation assessed as reduction in superoxide anion. The assay is classed as functional, cell-based.
Assay [5] concerns Macrophage. The assay is described as follows: Anti-inflammatory activity in mouse macrophages extracted from abdominal activity assessed as inhibition of LPS-induced nitric oxide production. The assay is classed as functional, cell-based.
The subject of assay [6] is BV-2. Nature of the assay: Anti-inflammatory activity in mouse BV-2 cells assessed as reduction in LPS-induced NO production pre-treated with compounds for 2 hrs followed by LPS-stimulation measured for 22 hrs by Griess reagent based analysis. The assay is classed as functional, cell-based.
The subject of assay [7] is RAW264.7. The assay is described as follows: Anti-neuroinflammatory activity in mouse RAW264.7 cells assessed as inhibition of LPS-induced NO production pre-incubated for 1 hr followed by LPS stimulation and measured after 24 hrs by Griess reagent based assay. The assay is classed as functional, cell-based.
Assay [8] in a line: Anti-inflammatory activity in carrageenan-induced human PBMC cells assessed as inhibition of IL-beta leakage at 10 uM measured for 24 hrs relative to control. The assay is classed as functional. On the set-up: scale not given: the % may be the effect or the level left.
The subject of assay [9] is Mus musculus. The assay is described as follows: Antiinflammatory activity against TPA-induced CD-1 mouse ear edema model assessed as reduction in ear edema at 0.25 mg/kg relative to control. The class given is functional. The arrangement: scale not given: the % may be the effect or the level left.

Take `COc1cc(O)c2c(=O)cc(-c3ccc(OC)c(OC/C=C(\C)CCC=C(C)C)c3)oc2c1`: in assay [1], the IC50 was at most 12.5 µM.
Consider `COc1cc2oc(-c3ccc4c(c3)OCO4)c(OC)c(=O)c2cc1OC`, for which the IC50 in [2] is 11.3 µM.
As to `c1ccc2c(c1)[I+]c1ccccc1-2` [DIPHENYLENEIODONIUM], the IC50 in [3] was found to be 1 µM.
For the molecule `O=S(=O)(F)Cc1ccccc1` [PHENYLMETHYLSULFONYLFLUORIDE], the IC50 in assay [4] amounted to 95 µM.
`CC(C)=CCc1cc(-c2oc3cc(O)cc(O)c3c(=O)c2O)ccc1O` [ISOLICOFLAVONOL]: the IC50 in assay [2] amounted to 2.88 µM.
For `COc1ccc(-c2coc3cc(O)c(CC=C(C)C)c(O)c3c2=O)c(O)c1`, the half-maximal inhibitory concentration (IC50) in assay [5] was 4.68 µM.
As to `CC(C)=CCc1cc(C(=O)/C=C/c2ccc(O)cc2O)c(O)cc1O`, in [6], the IC50 came to 2.26 µM.
Regarding `COc1cc(O)c2c(=O)cc(-c3ccc(OC)c(OC)c3)oc2c1`, the IC50 in [1] is at most 12.5 µM.
Turning to `COc1c(-c2ccc3c(c2)OCO3)c(=O)oc2cc3oc(C(C)(C)O)cc3c(OC)c12`, the IC50 in assay [7] amounted to 0.89 µM.
On the same count and under the same terms, the value for `COc1ccc(-c2c(O)c3c(OC)c4c(OC)c(C(C)C)oc4c(OC)c3oc2=O)cc1OC` was 0.89 µM.
As to `CC1(C)CCC[C@@]2(C)Oc3c(ccc4oc(-c5ccc(O)c(O)c5)cc(=O)c34)C[C@@]12C`, the IC50 worked out at 2.2 µM in assay [4] and 1.9 µM in [3].
For `COc1ccc(-c2cc(=O)c3c(O)c(OC)c(OC)cc3o2)cc1OC`, in assay [8], the Activity is reported as 16.8%.
Regarding `Cc1cc2oc(-c3ccc(O)c(O)c3)cc(=O)c2c2c1C[C@@]1(C)C(C)(C)CCC[C@@]1(C)O2`, the IC50 in assay [4] is 5.8 µM; in assay [3], 3.8 µM.
On to `COc1cc2occ(-c3ccc(O)cc3)c(=O)c2c(OC)c1CC=C(C)C`, for which the 50% inhibitory concentration (IC50) in assay [5] is 2.46 µM.
`COc1c(-c2ccc(O)c(O)c2)oc2c(CC=C(C)C)c3c(c(O)c2c1=O)C=CC(C)(C)O3`: the IC50 in assay [2] was 6.88 µM.
For `COc1cc(O)c2c(c1)O[C@H](c1ccc(O)cc1)CC2=O` [SAKURANETIN], the Activity in assay [9] is 45.8%.
Consider `COc1c(-c2ccc3c(c2)OCO3)oc2c(ccc3oc(C(C)(C)O)cc32)c1=O`, for which the 50% inhibitory concentration (IC50) in assay [2] was determined as 11.3 µM.
As for `O=C1C[C@@H](c2ccccc2)Oc2cc(O)cc(O)c21` [PINOCEMBRIN], the Activity in assay [9] was 67.4%.
For the molecule `COc1c(/C=C/C(=O)c2ccccc2)c(O)cc2occc12`, the IC50 in assay [6] was 10.9 µM.
Regarding `COc1ccc(-c2cc(=O)c3c(O)c(OC)c(OC)c(O)c3o2)cc1OC`, the Activity in assay [8] is recorded as 34.4%.
Regarding `C=C(C)c1cc2c(OC)c3c(O)c(-c4ccc5c(c4)OCO5)c(=O)oc3c(OC)c2o1`, the IC50 in [7] was 0.89 µM.
Still for that read-out and setting: with `C=C(C)c1oc2c(OC)c3oc(=O)c(-c4ccc(OC)cc4)c(O)c3c(OC)c2c1OC` the figure was 0.89 µM.
For `CC(C)=CCc1c(O)ccc(C(=O)/C=C/c2cc3c(cc2O)OCO3)c1O`, the IC50 in assay [6] was determined as 5.9 µM.
For the molecule `COc1ccc(-c2c(OC)c3c(OC)c4cc(C(C)(C)O)oc4cc3oc2=O)cc1`, in assay [7], the half-maximal inhibitory concentration (IC50) is 0.89 µM.
On to `COc1c([C@@H](CC(=O)c2ccccc2)OC)c(O)cc2occc12`, for which the concentration for half-maximal inhibition (IC50) in [6] amounted to 29.2 µM.
Take `COc1ccc(-c2coc3cc(OC)c(CC=C(C)C)c(OC)c3c2=O)cc1`: in [5], the concentration for half-maximal inhibition (IC50) is 2.06 µM.
In the case of `COc1c(-c2ccccc2)oc2c3c(ccc2c1=O)OC(C)(C)[C@H](O)C3`, the IC50 in assay [2] came out at 11.3 µM.
Turning to `COc1c2c(cc3oc(=O)c(-c4ccc(O)cc4)c(O)c13)OC(C)(C)C=C2`, the IC50 in [7] is 0.89 µM.
As for `COc1ccc(-c2cc(=O)c3c(O)c(OC)c(OC)c(OC)c3o2)cc1` [GARDENIN B], in assay [8], the Activity is 33.8%.
Consider `COc1c(O)cc2oc(-c3ccc(O)c(O)c3)cc(=O)c2c1O` [EUPAFOLIN], for which, in assay [5], the concentration for half-maximal inhibition (IC50) was 60 µM.
Turning to `COc1cc(O)c2c(=O)cc(-c3cc(OC)c(OC/C=C(\C)CCC=C(C)C)c(OC)c3)oc2c1`, the IC50 in assay [1] was at most 12.5 µM.
For the molecule `C=C(C)c1cc2c(OC)c3c(O)c(-c4ccc(OC)cc4)c(=O)oc3c(OC)c2o1`, in assay [7], the IC50 amounted to 0.89 µM.
As to `COc1cc(-c2coc3cc(O)c(CC=C(C)C)c(O)c3c2=O)c(OC)cc1O` [VIRIDIFLORIN], in assay [5], the IC50 turned out to be 5.36 µM.
Same read-out and setting: with `COc1cc(-c2coc3cc(O)c(CC=C(C)C)c(O)c3c2=O)c(O)cc1O` the figure was 6.72 µM.
